Where two headings read alike, the source gives them in different places.
Biological target: human Plasma Kallikrein (Homo sapiens (Human), UniProt P03952)
Test: In vitro enzyme inhibition of human plasma kallikrein (Pro-Phe-Arg-AMC cleavage)
Format: biochemical
Protocol: The ability of the compounds disclosed herein to inhibit human plasma kallikrein activity was quantified according to the procedures below.
A 10 mM solution of the test compound was made in DMSO. This solution was serially diluted 1:5 in DMSO to yield 2000, 400, 80, 16, 3.2, 0.64, 0.128, 0.0256 and 0.00512 μM compound test solutions. A control tube containing only DMSO is included. 16 μL of each compound test solution was combined with 384 μL of assay buffer (50 mM Tris-HCl pH 7.5, 150 mM NaCl, 0.01% Triton X-100) to yield a “4× test compound buffer stock”.
Separately, a 40 nM solution of human Plasma Kallikrein (Abcam) and a 93.6 μM solution Pro-Phe-Arg-AMC (Bachem) were made using assay buffer. These solutions are hereby referred to as 4×hPK and 2×PFR-AMC, respectively.
60 μL of each 4× test compound buffer stock was combined with 60 μL of 4×hPK to yield 120 μL of “2× test compound buffer stock/2×hPK”. 50 μL was removed from this mixture and placed into duplicate wells on a Microfluor 1Black U-bottom microtiter plate (Thermo Scientific). This plate was incubated for 5 minutes at 37° C. To each well, 50 μL of pre-warmed 2×PFR-AMC was added to start the enzymatic reaction. Cleavage of PFR-AMC was monitored in a Biotek Synergy H4 reader set at 37° C. Readings are taken every 43 seconds for 1 hour. The highest mean velocity over 20 reads (˜15 minutes) is used to calculate the IC50. The IC50 is calculated using the Gen5 (Biotek Instruments).
The ability of the compounds listed in Table 2 to inhibit human plasma kallikrein activity was determined.

[1] = human plasma kallikrein, PFR-AMC substrate, 37° C., read-out: hPK IC50

Chain of human Plasma Kallikrein (P03952 391-638 limits assumed): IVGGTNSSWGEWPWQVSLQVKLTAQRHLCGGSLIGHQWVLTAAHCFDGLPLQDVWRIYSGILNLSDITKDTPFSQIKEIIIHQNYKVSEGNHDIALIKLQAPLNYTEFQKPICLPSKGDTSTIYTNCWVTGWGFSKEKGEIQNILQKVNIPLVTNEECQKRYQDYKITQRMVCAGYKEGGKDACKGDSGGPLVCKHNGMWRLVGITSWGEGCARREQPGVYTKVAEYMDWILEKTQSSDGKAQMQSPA
Chain of human Plasma Kallikrein (P03952 20-390 partner limits assumed): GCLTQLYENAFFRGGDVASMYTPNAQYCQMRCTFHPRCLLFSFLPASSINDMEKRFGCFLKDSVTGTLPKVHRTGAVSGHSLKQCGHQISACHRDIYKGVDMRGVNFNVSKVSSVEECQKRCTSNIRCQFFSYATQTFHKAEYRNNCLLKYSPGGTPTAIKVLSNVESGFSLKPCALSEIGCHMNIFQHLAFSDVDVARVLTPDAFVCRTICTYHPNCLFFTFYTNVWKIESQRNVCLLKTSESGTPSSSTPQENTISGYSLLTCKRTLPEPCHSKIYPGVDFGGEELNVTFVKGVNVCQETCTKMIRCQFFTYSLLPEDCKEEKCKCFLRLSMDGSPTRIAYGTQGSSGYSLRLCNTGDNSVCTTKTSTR

Work on `N#Cc1nn(Cc2cc(F)c3ncc(Cl)cc3c2)cc1C(=O)NCc1cc2c(Cl)c[nH]c2cc1F` [Example 53, N-((3-chloro-6-fluoro-1H-indol-5-yl)methyl)-1-((3-chloro-8-fluoroquinolin-6-yl)methyl)-3-cyano-1H-pyrazole-4-carboxamide] yielded an IC50 [1] of less than 100 nM.

With `Cc1cc(N)nc(C)c1CNC(=O)c1nn(Cc2ccc3ncc(Cl)cc3c2)c2cc[nH]c(=O)c12` [Example 120, N-((6-amino-2,4-dimethylpyridin-3-yl)methyl)-1-((3-chloroquinolin-6-yl)methyl)-4-oxo-4,5-dihydro-1H-pyrazolo[4,3-c]pyridine-3-carboxamide] the IC50 [1] was 1000 to 10000 nM.

`Cc1cc(N)nc(C)c1CNC(=O)c1cc(C#N)n(Cc2ccc3ncc(Cl)cc3c2)n1` [Example 108, N-((6-amino-2,4-dimethylpyridin-3-yl)methyl)-1-((3-chloroquinolin-6-yl)methyl)-5-cyano-1H-pyrazole-3-carboxamide] showed an IC50 [1] of 100 to 1000 nM.

In the case of `COC(=O)c1nc(C(=O)NCc2c(C)cc(N)nc2C)nn1Cc1ccc2ncc(Cl)cc2c1` [Example 102, methyl 3-(((6-amino-2,4-dimethylpyridin-3-yl)methyl)carbamoyl)-1-((3-chloroquinolin-6-yl)methyl)-1H-1,2,4-triazole-5-carboxylate], the IC50 [1] is reported as greater than 10000 nM.

In the case of `Cc1nc(N)ccc1CNC(=O)c1oc(Cc2ccc3ncc(Cl)cc3c2)nc1C#N` [Example 88, N-((6-amino-2-methylpyridin-3-yl)methyl)-2-((3-chloroquinolin-6-yl)methyl)-4-cyanooxazole-5-carboxamide], the IC50 [1] is reported as 100 to 1000 nM.

For `Cc1cc(N)nc(C)c1CNC(=O)c1cn(Cc2ccc3ncc(Cl)cc3c2)c(C#N)n1` [Example 113, N-((6-amino-2,4-dimethylpyridin-3-yl)methyl)-1-((3-chloroquinolin-6-yl)methyl)-2-cyano-1H-imidazole-4-carboxamide], the IC50 [1] was 100 to 1000 nM.

`Cc1cc(N)nc(C)c1CNC(=O)c1cn(Cc2cc(C(N)=O)c3ncc(Cl)cc3c2)nc1C#N` [Example 72, 6-((4-(((6-amino-2,4-dimethylpyridin-3-yl)methyl)carbamoyl)-3-cyano-1H-pyrazol-1-yl)methyl)-3-chloroquinoline-8-carboxamide] was tested, and the IC50 [1] was less than 100 nM.

For `N#Cc1nn(Cc2ccc3ncc(Cl)cc3c2)cc1C(=O)NCc1n[nH]c2ccc(Cl)cc12` [Example 48, N-((5-chloro-1H-indazol-3-yl)methyl)-1-((3-chloroquinolin-6-yl)methyl)-3-cyano-1H-pyrazole-4-carboxamide], the IC50 [1] was 100 to 1000 nM.

Work on `Cc1cc(N)nc(C)c1CNC(=O)c1cn(Cc2ccc3ncc(Cl)cc3c2)c2ncnc(N)c12` [Example 34, 4-amino-7-(3-chloro-quinolin-6-ylmethyl)-7H-pyrrolo[2,3-d]pyrimidine-5-carboxylic acid (6-amino-2,4-dimethyl-pyridin-3-ylmethyl)-amide] yielded an IC50 [1] of less than 100 nM.

In the case of `Cc1cc(N)nc(C)c1CNC(=O)c1cn(Cc2ccc3ncc(Cl)cc3c2)c2cnc(Cl)cc12` [Example 117, N-((6-amino-2,4-dimethylpyridin-3-yl)methyl)-5-chloro-1-((3-chloroquinolin-6-yl)methyl)-1H-pyrrolo[2,3-c]pyridine-3-carboxamide], the IC50 [1] is reported as less than 100 nM.

`Cc1nc(N)ccc1CNC(=O)c1cn(Cc2ccc3ncc(Cl)cc3c2)nc1C#N` [Example 77, N-((6-amino-2-methylpyridin-3-yl)methyl)-1-((3-chloroquinolin-6-yl)methyl)-3-cyano-1H-pyrazole-4-carboxamide] gave an IC50 [1] of less than 100 nM.

With `Cc1nc(N)ccc1CNC(=O)c1cn(Cc2ccc3ncc(Cl)cc3c2)nc1C` [Example 85, N-((6-amino-2-methylpyridin-3-yl)methyl)-1-((3-chloroquinolin-6-yl)methyl)-3-methyl-1H-pyrazole-4-carboxamide] the IC50 [1] was less than 100 nM.

In the case of `Cc1cc(N)nc(C)c1CNC(=O)c1cnc(Cc2ccc3ncc(Cl)cc3c2)o1` [Example 89, N-((6-amino-2,4-dimethylpyridin-3-yl)methyl)-2-((3-chloroquinolin-6-yl)methyl)oxazole-5-carboxamide], the IC50 [1] is reported as less than 100 nM.

Work on `COc1ncnc2c1c(C(=O)NCc1c(C)cc(N)nc1C)cn2Cc1ccc2ncc(Cl)cc2c1` [Example 131, N-((6-amino-2,4-dimethylpyridin-3-yl)methyl)-7-((3-chloroquinolin-6-yl)methyl)-4-methoxy-7H-pyrrolo[2,3-d]pyrimidine-5-carboxamide] yielded an IC50 of 100 to 1000 nM.

Work on `Cc1cc(N)nc(C)c1CNC(=O)c1c[nH]c(Cc2ccc3ncc(Cl)cc3c2)n1` [Example 103, N-((6-amino-2,4-dimethylpyridin-3-yl)methyl)-2-((3-chloroquinolin-6-yl)methyl)-1H-imidazole-4-carboxamide] yielded an IC50 [1] of less than 100 nM.

In the case of `Cc1cnc2c(C#N)cc(Cn3cc(C(=O)NCc4c(C)cc(N)nc4C)c(C(N)=O)n3)cc2c1` [Example 63, N4-((6-amino-2,4-dimethylpyridin-3-yl)methyl)-1-((8-cyano-3-methylquinolin-6-yl)methyl)-1H-pyrazole-3,4-dicarboxamide], the IC50 [1] is reported as 100 to 1000 nM.

Compound `Cc1cc(N)nc(C)c1CNC(=O)c1cnn(Cc2cc(F)c3ncc(Cl)cc3c2)c1C#N` [Example 70, N-((6-amino-2,4-dimethylpyridin-3-yl)methyl)-1-((3-chloro-8-fluoroquinolin-6-yl)methyl)-5-cyano-1H-pyrazole-4-carboxamide] has an IC50 [1] greater than 10000 nM.

`Cc1cc(N)nc(C)c1CNC(=O)c1cn(Cc2cc(S(N)(=O)=O)c3ncc(Cl)cc3c2)nc1C#N` [Example 60, N-((6-amino-2,4-dimethylpyridin-3-yl)methyl)-1-((3-chloro-8-sulfamoylquinolin-6-yl)methyl)-3-cyano-1H-pyrazole-4-carboxamide] gave an IC50 [1] of less than 100 nM.

`Cc1cc(N)nc(C)c1CNC(=O)c1cn(Cc2ccc3ncc(Cl)cc3c2)c(CN)n1` [Example 112, N-((6-amino-2,4-dimethylpyridin-3-yl)methyl)-2-(aminomethyl)-1-((3-chloroquinolin-6-yl)methyl)-1H-imidazole-4-carboxamide] was tested, and the IC50 [1] was 100 to 1000 nM.

In the case of `Cc1cc(N)nc(C)c1CNC(=O)c1cn(Cc2ccc3ncc(Cl)cc3c2)c(C(N)=O)n1` [Example 111, N4-((6-amino-2,4-dimethylpyridin-3-yl)methyl)-1-((3-chloroquinolin-6-yl)methyl)-1H-imidazole-2,4-dicarboxamide], the IC50 [1] is reported as 100 to 1000 nM.

“N-((6-amino-2,4-dimethylpyridin-3-yl)methyl)-1-((3-chloroquinolin-6-yl)methyl)-3-cyano-1H-1,2,4-triazole-5-carboxamide [Example 107]” was tested, and the IC50 [1] was 100 to 1000 nM.

`Cc1nc(N)ccc1CNC(=O)c1nnc(Cc2ccc3ncc(Cl)cc3c2)[nH]1` [Example 97, N-((6-amino-2-methylpyridin-3-yl)methyl)-5-((3-chloroquinolin-6-yl)methyl)-4H-1,2,4-triazole-3-carboxamide] was tested, and the IC50 [1] was less than 100 nM.

`O=C(NCc1cnc2[nH]cc(Cl)c2c1)c1nnc(Cc2ccc3ncc(Cl)cc3c2)o1` [Example 45, N-((3-chloro-1H-pyrrolo[2,3-b]pyridin-5-yl)methyl)-5-((3-chloroquinolin-6-yl)methyl)-1,3,4-oxadiazole-2-carboxamide] showed an IC50 [1] of 100 to 1000 nM.

Work on `Cc1cc(N)nc(C)c1CNC(=O)c1cnn(Cc2cc(F)c3ncc(Cl)cc3c2)c1C(N)=O` [Example 71, N4-((6-amino-2,4-dimethylpyridin-3-yl)methyl)-1-((3-chloro-8-fluoroquinolin-6-yl)methyl)-1H-pyrazole-4,5-dicarboxamide] yielded an IC50 [1] greater than 10000 nM.

Compound `Cc1cc(N)nc(C)c1CNC(=O)c1cn(Cc2ccc3ncc(Cl)cc3c2)c2ncc(C#N)cc12` [Example 135, N-((6-amino-2,4-dimethylpyridin-3-yl)methyl)-1-((3-chloroquinolin-6-yl)methyl)-5-cyano-1H-pyrrolo[2,3-b]pyridine-3-carboxamide] has an IC50 of 100 to 1000 nM.

Compound `Cc1cc(N)nc(C)c1CNC(=O)c1cnn(Cc2ccc3ncc(Cl)cc3c2)c1C#N` [Example 40, N-((6-amino-2,4-dimethylpyridin-3-yl)methyl)-1-((3-chloroquinolin-6-yl)methyl)-5-cyano-1H-pyrazole-4-carboxamide] has an IC50 [1] of 1000 to 10000 nM.

`Cc1cc(N)nc(C)c1CNC(=O)c1nn(Cc2ccc3ncc(Cl)cc3c2)cc1[N+](=O)[O-]` [Example 18, N-((6-amino-2,4-dimethylpyridin-3-yl)methyl)-1-((3-chloroquinolin-6-yl)methyl)-4-nitro-1H-pyrazole-3-carboxamide] gave an IC50 [1] of less than 100 nM.

In the case of `Cc1cc(N)nc(C)c1CNC(=O)c1cn(Cc2ccc3ncc(Cl)cc3c2)c2ccnc(C#N)c12` [Example 133, N-((6-amino-2,4-dimethylpyridin-3-yl)methyl)-1-((3-chloroquinolin-6-yl)methyl)-4-cyano-1H-pyrrolo[3,2-c]pyridine-3-carboxamide], the IC50 [1] is reported as less than 100 nM.

For `Cc1cc(N)nc(C)c1CNC(=O)c1nnc(Cc2cc(C(C)(C)O)c3ncc(Cl)cc3c2)o1` [Example 86, N-((6-amino-2,4-dimethylpyridin-3-yl)methyl)-5-((3-chloro-8-(2-hydroxypropan-2-yl)quinolin-6-yl)methyl)-1,3,4-oxadiazole-2-carboxamide], the IC50 [1] was less than 100 nM.

Source: patent publication US10301284B2, “Therapeutic inhibitory compounds” (LifeSci Pharmaceuticals, Inc., priority 2016, dated 2019)
